From patent US20100144809A1, “NOVEL BENZAMIDINE DERIVATIVES USEFUL AS POTASSIUM CHANNEL MODULATORS” (Neuro Search A/S, priority 2007, published 2010)

Molecular target: T1, human BK channels (Homo sapiens, UniProt Q12791)
T1 construct: expressed in transfected cells; host or cells: Xenopus oocytes
Test: Electrophysiological determination of BK current, two-electrode voltage clamp in Xenopus oocytes
Assay type: cell-based
Conditions: 30 μM; increase of BK current relative to the basal current; Xenopus oocytes expressing human BK channels
Description: In this experiment we investigated the influence of the compounds of the invention on the membrane currents when determined electrophysiologically on Xenopus Oocytes capable of expressing human BK channels, and the current through the channels is recorded using the classical two-electrode voltage clamp technique.
The results of these determinations are presented in Table 1 below, and presented as the increase of BK current relative to the basal current.

T1 sequence (Q12791 whole entry): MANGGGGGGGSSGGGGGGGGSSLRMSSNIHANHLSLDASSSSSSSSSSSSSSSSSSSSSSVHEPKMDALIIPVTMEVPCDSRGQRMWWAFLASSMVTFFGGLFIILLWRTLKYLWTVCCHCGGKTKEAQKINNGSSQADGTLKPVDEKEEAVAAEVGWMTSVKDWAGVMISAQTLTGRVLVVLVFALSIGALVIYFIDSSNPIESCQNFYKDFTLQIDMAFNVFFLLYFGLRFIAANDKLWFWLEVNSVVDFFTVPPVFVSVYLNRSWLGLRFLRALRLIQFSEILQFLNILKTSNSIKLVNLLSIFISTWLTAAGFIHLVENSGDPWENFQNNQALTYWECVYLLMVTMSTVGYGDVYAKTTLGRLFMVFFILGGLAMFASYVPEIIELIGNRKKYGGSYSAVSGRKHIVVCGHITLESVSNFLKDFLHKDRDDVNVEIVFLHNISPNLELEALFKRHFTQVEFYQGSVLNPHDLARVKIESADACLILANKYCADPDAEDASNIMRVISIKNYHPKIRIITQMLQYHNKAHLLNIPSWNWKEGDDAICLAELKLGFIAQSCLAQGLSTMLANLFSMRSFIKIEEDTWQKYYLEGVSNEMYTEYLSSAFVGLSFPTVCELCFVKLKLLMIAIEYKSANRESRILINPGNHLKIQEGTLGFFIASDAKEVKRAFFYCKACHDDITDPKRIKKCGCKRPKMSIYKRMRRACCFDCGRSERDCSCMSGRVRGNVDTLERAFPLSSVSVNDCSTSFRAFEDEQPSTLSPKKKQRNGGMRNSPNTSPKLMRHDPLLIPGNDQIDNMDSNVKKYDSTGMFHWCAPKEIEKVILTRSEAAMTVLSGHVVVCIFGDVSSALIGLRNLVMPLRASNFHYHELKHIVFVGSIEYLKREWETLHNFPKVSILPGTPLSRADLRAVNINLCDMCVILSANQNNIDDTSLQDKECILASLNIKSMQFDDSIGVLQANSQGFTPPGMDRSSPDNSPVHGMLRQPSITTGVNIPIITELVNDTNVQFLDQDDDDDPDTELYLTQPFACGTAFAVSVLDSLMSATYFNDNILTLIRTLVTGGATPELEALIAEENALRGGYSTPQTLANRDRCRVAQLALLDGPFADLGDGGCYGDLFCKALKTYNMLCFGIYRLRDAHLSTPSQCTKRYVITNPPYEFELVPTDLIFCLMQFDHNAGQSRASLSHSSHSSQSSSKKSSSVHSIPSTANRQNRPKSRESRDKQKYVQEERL

| SMILES | Relative Increase of BK Current |
| --- | --- |
| O=c1[nH]nc(-c2cc(C(F)(F)F)cc(C(F)(F)F)c2)n1-c1ccc(-c2ccc(C(F)(F)F)cc2)cc1-c1nn[nH]n1 [Compound 2, 5-(3,5-Bis-trifluoromethyl-phenyl)-4-[3-(2H-tetrazol-5-yl)-4′-trifluoromethyl-biphenyl-4-yl]-2,4-dihydro-[1,2,4]triazol-3-one] | 252% |
| NNC(=Nc1ccc(-c2ccc(C(F)(F)F)cc2)cc1-c1nnn[nH]1)c1cc(C(F)(F)F)cc(C(F)(F)F)c1 [Compound 1, N-Amino-N′-[3-(1H-tetrazol-5-yl)-4′-trifluoromethyl-biphenyl-4-yl]-3,5-bis-trifluoromethyl-benzamidine] | 1118% |
| ONC(=Nc1ccc(-c2ccc(C(F)(F)F)cc2)cc1-c1nnn[nH]1)c1cc(C(F)(F)F)cc(C(F)(F)F)c1 [Compound 3, N-Hydroxy-N′-[3-(1H-tetrazol-5-yl)-4′-trifluoromethyl-biphenyl-4-yl]-3,5-bis-trifluoromethyl-benzamidine] | 1342% |
